Data taken from patent US20260033491A1, “FUNGAL SPORE FORMULATIONS INCLUDING CARRIER FLUIDS” (priority 2018, published 2026).

Assays:
Format in all cases: cell-based
[1] = test system: Beauveria bassiana spores; experiment: Spore viability (germination rate) of Beauveria bassiana spores dispersed in fluid and stored at 30° C.; conditions: Beauveria bassiana spores in fluid; for spore viability [%] after 2 w (14 d) / spore viability [%] after 5 w (35 d): storage at 30° C.
Protocol: (§1) 1.5 g of Beauveria bassiana pure spore powder were transferred into a formulation vessel (IKA Type DT-20 mixing vessel with dispersion tool for Ultra Turrax) using a sterile spoon. 13.5 mL of fluid were added into the respective formulation vessel and dispersed using ultra turrax tube drive control for 1 min at 3000 rpm; change direction after 30 sec. After this 2.8 mL were transferred in four sample bottles (Wheaton Serum vial, Type I) leaving little headspace and closed tight using crimpneck caps (Macherey—Nagel type N 13) Afterwards all sample bottles were transferred to an incubator set at 30° C. and stored for a given time.
(§2) In regular intervals a sample was retrieved from the storage location and analyzed for spore viability. Therefore the original samples were thoroughly homogenized. Aliquots of 0.25 g or 250 μL of each sample are transferred into 50 mL falcon tubes. The tubes were filled up to 25 g using a sterile aqueous solution containing 2% Tween 80 and homogenized by vortexing to achieve the first dilution step (1:100 dilution). This dilution was used for further dilution and spotting on agar.
For these samples, an alternative dispersion/dilution method was applied where the oil phase is stripped from the spores first: 0.25 g or 250 μL of sample are weighted into a 2 mL Eppendorf tube, and 0.5 mL of 2% Tween 80 is added, and the mixture is transferred into an Eppendorf centrifuge where it is centrifuged for 1 min at 10.000 rpm. The supernatant (=upper oily phase) is discarded by using a pipette. […] 250 μL or 0.25 g of each sample are transferred into a sterile 50 mL Falcon tube. The tubes were filled up to 25 g using a sterile aqueous solution containing 2% Tween 80 and homogenized by vortexing to achieve the first dilution step (1:100 dilution). This dilution is used for further dilution and spotting on agar.
(§3) For evaluation of spore germination rate prepare a 1:15000 dilution based on the 1:100 dilution achieved by multiple automated dilution (pipetting robot, 96 well plate). Afterwards 12×12 cm agar plates are taken and spotted with 10 times 5 μL of each sample using an automated 12-Channel pipet. Wait until liquid is soaked up by agar and transfer agar plate to an incubator and incubate at 20° C. for 17 hours. Open the plate and place it under the microscope. Randomly chose one area per spot and record the number of germinated and non-germinated spores that are within the designated field. At least 200 spores per sample need to be evaluated. If needed count more than one field per spot.

I. fumosorosea spores = experiment: Spore viability (germination rate) of Isaria fumosorosea spores dispersed in fluid and stored at 30° C.; conditions: I. fumosorosea spores in fluid; for spore viability [%] after 1 m (27 d) / spore viability [%] after 7 m (210 d): storage at 30° C.
Protocol: as §1, with “I. fumosorosea” for “Beauveria bassiana”
as §2, with “were” for “are”
Not all samples mixed well or mixed at all in 2% Tween 80. For these samples, an alternative dispersion/dilution method was applied where the oil phase is stripped from the spores first: 0.25 g or 250 μL of sample were weighted into a 2 mL Eppendorf tube, and 0.5 mL of 2% Tween 80 was added, and the mixture was transferred into an Eppendorf centrifuge where it was centrifuged for 1 min at 10.000 rpm. The supernatant (=upper oily phase) was discarded by using a pipette. Afterwards 250 μL of Breakthru S 240 were added and the spores were well dispersed. 250 μL or 0.25 g of each sample were transferred into a sterile 50 mL Falcon tube. The tubes were filled up to 25 g using a sterile aqueous solution containing 2% Tween 80 and homogenized by vortexing to achieve the first dilution step (1:100 dilution). This dilution was used for further dilution and spotting on agar.
as §3, with “23°” for “20°”, “16” for “17”

[2] = test system: Penicillium bilaii spores; experiment: Spore viability (germination rate) of Penicillium bilaii spores dispersed in fluid and stored at 30° C.; conditions: Penicillium bilaii spores in fluid; for spore viability [%] 6 w@30° C. (41-43 d) / spore viability [%] 3 m@30° C. (83-85 d): storage at 30° C.
Protocol: as §1, with “Penicillium bilaii” for “Beauveria bassiana”
as §2
Not all samples mixed well or mixed at all in 2% Tween 80. For these samples, an alternative dispersion/dilution method was applied where the oil phase is stripped from the spores first: 0.25 g or 250 μL of sample are weighted into a 2 mL Eppendorf tube, and 0.5 mL of 2% Tween 80 is added, and the mixture is transferred into an Eppendorf centrifuge where it is centrifuged for 1 min at 10.000 rpm. The supernatant (=upper oily phase) is discarded by using a pipette. Afterwards 250 μL of Breakthru S 240 are added and the spores are well dispersed. 250 μL or 0.25 g of each sample are transferred into a sterile 50 mL Falcon tube. The tubes were filled up to 25 g using a sterile aqueous solution containing 2% Tween 80 and homogenized by vortexing to achieve the first dilution step (1:100 dilution). This dilution is used for further dilution and spotting on agar.
as §3

SMILES	spore viability [%] at day 1 [1]	spore viability [%] after 2 w (14 d) [1]	spore viability [%] after 5 w (35 d) [1]	spore viability [%] at day 1 (I. fumosorosea spores)	spore viability [%] after 1 m (27 d) (I. fumosorosea spores)	spore viability [%] after 7 m (210 d) (I. fumosorosea spores)	spore viability [%] initial (1-2 d) [2]	spore viability [%] 6 w@30° C. (41-43 d) [2]	spore viability [%] 3 m@30° C. (83-85 d) [2]
CCCCOC(=O)CCCCC(=O)OCCCC [Adimoll DB, di-n-Butyl adipate]	87%	66.1%	37.7%	89.5%	66.6%	60.0%	97.5%	90.8%	75.5%
CC(=O)OCC(COC(C)=O)OC(C)=O [Triacetin, Glycerin triacetate]	89.3%	58.6%	31.6%	90%	84.0%	69.1%	92.9%	83.2%	57.6%
